Measurements from US10399989B2, “Pyrazolopyrimidine derivatives as BTK inhibitors for the treatment of cancer” (Loxo Oncology, Inc., priority 2016, dated 2019).
Read-outs that look alike come from different tables or passages of the source.

How the values were obtained:
BTK^WT = BTK^WT (Homo sapiens (Human), UniProt Q06187); assay: BTK^WT binding affinity (TR-FRET, LanthaScreen)
Method: BTK^WT binding affinity of each compound tested was determined using a time-resolved fluorescence resonance energy transfer (TR-FRET) methodology. 2.5 nM Recombinant BTK^WT kinase, varying concentrations of inhibitor, 2 nM LanthaScreen™ Eu anti-His Antibody and 15 nM Kinase Tracer 236 was incubated in 1× LanthaScreen™ Kinase Buffer A for 5 h. Recombinant BTK kinase and all LanthaScreen™ components were purchased from Invitrogen. Measurements were performed in a reaction volume of 30 μL using half-area 96-well assay plates. The TR-FRET signal was read on a plate reader with an excitation wavelength of 340 nm and detection wavelengths of 615 and 665 nm. Binding affinity was determined for each compound by measuring TR-FRET signal at various concentrations of compound and plotting the relative fluorescence units against the inhibitor concentration to estimate the IC50 from log [Inhibitor] vs response using the Variable Slope model in Graphpad prism from Graphpad software (SanDiego, Calif.).

[1] = test system: OCI-Ly10 human DLBCL cells; assay: OCI-Ly10 anti-proliferative activity (Resazurin, 72 h); format: cell-based; details: read-out: Proliferation OCI-Ly10-IC50
Method: Compounds were assayed for effects on the growth of OCI-Ly10 human DLBCL cells that are dependent on NFκB signalling. OCI-Ly10 cells were grown in suspension in T225 flasks, centrifuged and re-suspended in 2.5% FBS containing media. Cells were then plated at 7.5×10^3 cells per well in 96-well plates in varying concentrations of compound and incubated for 72 h at 37° C. An additional plate of cells to be used as the Day 0 read was seeded without compound addition, Resazurin was added to each well, incubated for 5 h and the fluorescence measured at 590 nm. After 72 h of compound treatment, Resazurin was added to each well of the compound treated plates, incubated for 5 h and the fluorescence measured at 590 nm. The IC50 was then calculated by subtracting the average Day 0 value from each well value from the treated plates, each treatment was then calculated as a percentage of the DMSO control and the percentages plotted against the inhibitor concentration to estimate the IC50 from log [Inhibitor] vs response using the Variable Slope model in Graphpad prism from Graphpad software (SanDiego, Calif.).

EGFR = EGFR (Homo sapiens (Human), UniProt P00533); assay: EGFR binding affinity (TR-FRET, LanthaScreen); details: 5 h incubation
Sequence of EGFR (P00533 25-1210): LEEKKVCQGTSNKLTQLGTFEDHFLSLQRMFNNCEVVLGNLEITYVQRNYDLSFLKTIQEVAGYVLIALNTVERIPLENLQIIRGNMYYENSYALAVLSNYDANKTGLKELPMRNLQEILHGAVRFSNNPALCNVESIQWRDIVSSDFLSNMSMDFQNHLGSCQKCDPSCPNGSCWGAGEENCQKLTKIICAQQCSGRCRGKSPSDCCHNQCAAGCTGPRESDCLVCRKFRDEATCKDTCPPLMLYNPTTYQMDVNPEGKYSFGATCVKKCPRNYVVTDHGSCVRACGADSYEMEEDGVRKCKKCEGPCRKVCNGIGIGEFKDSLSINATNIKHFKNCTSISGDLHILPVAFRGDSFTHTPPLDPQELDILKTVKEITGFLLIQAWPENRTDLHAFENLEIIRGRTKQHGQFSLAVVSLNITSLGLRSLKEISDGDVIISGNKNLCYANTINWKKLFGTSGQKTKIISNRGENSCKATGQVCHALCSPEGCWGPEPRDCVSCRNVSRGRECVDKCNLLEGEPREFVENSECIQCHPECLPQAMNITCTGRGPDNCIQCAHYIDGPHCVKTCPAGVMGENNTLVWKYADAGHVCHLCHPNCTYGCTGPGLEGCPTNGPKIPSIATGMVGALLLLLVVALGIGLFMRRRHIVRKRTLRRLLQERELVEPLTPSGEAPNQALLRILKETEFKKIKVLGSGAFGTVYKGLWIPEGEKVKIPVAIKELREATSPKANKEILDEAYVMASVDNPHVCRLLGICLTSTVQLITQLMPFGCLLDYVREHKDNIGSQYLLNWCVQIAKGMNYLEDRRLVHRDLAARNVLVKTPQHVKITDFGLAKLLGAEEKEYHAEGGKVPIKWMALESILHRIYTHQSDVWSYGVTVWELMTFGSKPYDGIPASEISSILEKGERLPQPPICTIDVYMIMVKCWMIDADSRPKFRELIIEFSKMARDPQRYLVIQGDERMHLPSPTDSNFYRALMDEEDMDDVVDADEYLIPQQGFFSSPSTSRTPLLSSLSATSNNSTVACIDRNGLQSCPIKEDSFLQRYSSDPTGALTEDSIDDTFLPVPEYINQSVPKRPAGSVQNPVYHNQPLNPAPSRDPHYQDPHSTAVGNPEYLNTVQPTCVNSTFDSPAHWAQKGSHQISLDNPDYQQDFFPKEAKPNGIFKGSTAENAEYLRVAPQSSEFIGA
Method: EGFR binding affinity was determined using a time-resolved fluorescence resonance energy transfer (TR-FRET) methodology. 2.5 nM Recombinant EGFR, varying concentrations of inhibitor, 2 nM LanthaScreen™ Eu anti-GST Antibody and 3 nM Kinase Tracer 199 was incubated in 1× LanthaScreen™ Kinase Buffer A for 5 h. Recombinant EGFR and all LanthaScreen™ components were purchased from Invitrogen. Measurements were performed in a reaction volume of 30 μL using half-area 96-well assay plates. The TR-FRET signal was read on a plate reader with an excitation wavelength of 340 nm and detection wavelengths of 615 and 665 nm. Binding affinity was determined for each compound by measuring TR-FRET signal at various concentrations of compound and plotting the relative fluorescence units against the inhibitor concentration to estimate the IC50 from log [Inhibitor] vs response using the Variable Slope model in Graphpad prism from Graphpad software (SanDiego, Calif.).

BTK^C481S = BTK^C481S (Homo sapiens (Human), UniProt Q06187, C481S); assay: BTK^C481S binding affinity (TR-FRET, LanthaScreen); details: 5 h incubation
Sequence of BTK^C481S (Q06187 whole entry C481S): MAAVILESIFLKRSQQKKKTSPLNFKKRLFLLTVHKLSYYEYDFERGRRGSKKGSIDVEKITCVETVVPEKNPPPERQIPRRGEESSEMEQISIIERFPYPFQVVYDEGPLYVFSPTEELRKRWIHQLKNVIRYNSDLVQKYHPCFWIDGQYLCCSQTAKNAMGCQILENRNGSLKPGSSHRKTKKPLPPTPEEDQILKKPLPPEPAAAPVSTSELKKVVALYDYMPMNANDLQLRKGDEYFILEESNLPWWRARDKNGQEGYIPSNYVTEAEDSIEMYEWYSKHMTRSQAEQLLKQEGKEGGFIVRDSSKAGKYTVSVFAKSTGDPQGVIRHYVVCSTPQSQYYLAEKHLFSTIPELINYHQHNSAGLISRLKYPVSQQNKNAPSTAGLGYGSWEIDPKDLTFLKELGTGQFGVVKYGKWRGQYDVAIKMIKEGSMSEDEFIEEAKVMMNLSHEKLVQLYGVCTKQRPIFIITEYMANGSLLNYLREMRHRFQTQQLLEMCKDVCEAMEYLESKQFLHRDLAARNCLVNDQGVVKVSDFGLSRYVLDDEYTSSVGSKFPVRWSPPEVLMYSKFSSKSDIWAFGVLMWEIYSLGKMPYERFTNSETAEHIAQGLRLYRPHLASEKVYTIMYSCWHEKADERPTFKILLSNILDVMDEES
Method: BTK^C481S binding affinity of each compound tested was determined using a time-resolved fluorescence resonance energy transfer (TR-FRET) methodology. 5 nM Recombinant […] kinase, varying concentrations of inhibitor, 2 nM LanthaScreen™ Eu anti-His Antibody and 30 nM Kinase Tracer 236 was incubated in 1× LanthaScreen™ Kinase Buffer A for 5 h. Recombinant BTK^C481S kinase was purchased from SignalChem and all LanthaScreen™ components were purchased from Invitrogen. Measurements were performed in a reaction volume of 30 μL using half-area 96-well assay plates. The TR-FRET signal was read on a plate reader with an excitation wavelength of 340 nm and detection wavelengths of 615 and 665 nm. Binding affinity was determined for each compound by measuring TR-FRET signal at various concentrations of compound and plotting the relative fluorescence units against the inhibitor concentration to estimate the IC50 from log [Inhibitor] vs response using the Variable Slope model in Graphpad prism from Graphpad software (SanDiego, Calif.).

[2] = TR-FRET binding, 5 h incubation, read-out: BTK^WT IC50
[3] = Table 6, numeric values, read-out: BTK Binding IC50

Sequence of BTK^WT (Q06187 whole entry): as the sequence (Q06187 whole entry C481S) above, with S481C counted along it

| SMILES | IC50 (BTK^WT; [2]) | IC50 [1] | IC50 (EGFR) | IC50 (BTK^C481S) | IC50 (BTK^WT; [3]) | IC50 ([1]; Homo sapiens, OCI-Ly10, 72 h) |
| --- | --- | --- | --- | --- | --- | --- |
| COc1ccccc1C(=O)NCc1ccc(-c2nn(C3CCC(C(=O)N(C)C)CC3)c3ncnc(N)c23)cc1 (single isomer, unassigned; isomer 1) [33-isomer 1] | ≤ 10 nM | 10 to 100 nM | 100 to 1000 nM | ≤ 10 nM |  |  |
| COc1ccc(F)cc1C(=O)NCc1ccc(-c2nn(C3CCCC3)c3ncnc(N)c23)cc1 [Example 4, N-[[4-(4-Amino-1-cyclopentyl-pyrazolo[3,4-d]pyrimidin-3-yl)phenyl]methyl]-5-fluoro-2-methoxy-benzamide] | ≤ 10 nM |  | 100 to 1000 nM | ≤ 10 nM | 0.8 nM | 10 to 100 nM |
| COc1ccccc1C(=O)NCc1ccc(-c2nn(C3CCCO3)c3ncnc(N)c23)cc1 (stereo not shown) [Example 5, N-[[4-(4-amino-1-tetrahydrofuran-2-yl-pyrazolo[3,4-d]pyrimidin-3-yl)phenyl]methyl]-2-methoxy-benzamide] | 10 to 100 nM |  | 1000 to 10000 nM | 10 to 100 nM |  | 100 to 1000 nM |
| CCOc1ccccc1C(=O)NCc1ccc(-c2nn(C3CCCC3)c3ncnc(N)c23)cc1 [Example 7, N-[[4-(4-amino-1-cyclopentyl-pyrazolo[3,4-d]pyrimidin-3-yl)phenyl]methyl]-2-ethoxy-benzamide] | ≤ 10 nM |  | 1000 to 10000 nM | ≤ 10 nM |  | 100 to 1000 nM |
| CC(C)Oc1ccccc1C(=O)NCc1ccc(-c2nn(C3CCCC3)c3ncnc(N)c23)cc1 [Example 8, N-[[4-(4-amino-1-cyclopentyl-pyrazolo[3,4-d]pyrimidin-3-yl)phenyl]methyl]-2-isopropoxy-benzamide] | 10 to 100 nM |  | 1000 to 10000 nM | ≤ 10 nM |  | 1000 to 10000 nM |
| COc1ccc(Cl)cc1C(=O)NCc1ccc(-c2nn(C3CCCC3)c3ncnc(N)c23)cc1 [Example 11, N-[[4-(4-amino-1-cyclopentyl-pyrazolo[3,4-d]pyrimidin-3-yl)phenyl]methyl]-5-chloro-2-methoxy-benzamide] | ≤ 10 nM |  | 1000 to 10000 nM | ≤ 10 nM |  | 10 to 100 nM |
| COc1ccc(C)cc1C(=O)NCc1ccc(-c2nn(C3CCCC3)c3ncnc(N)c23)cc1 [Example 12, N-[[4-(4-amino-1-cyclopentyl-pyrazolo[3,4-d]pyrimidin-3-yl)phenyl]methyl]-2-methoxy-5-methyl-benzamide] | ≤ 10 nM |  | 1000 to 10000 nM | ≤ 10 nM |  | 10 to 100 nM |
| COc1ccccc1C(=O)NCc1ccc(-c2nn(C3CCC(=O)C3)c3ncnc(N)c23)cc1 (stereo not shown) [Example 21, N-[[4-[4-amino-1-(3-oxocyclopentyl)pyrazolo[3,4-d]pyrimidin-3-yl]phenyl]methyl]-2-methoxy-benzamide] | ≤ 10 nM |  | 1000 to 10000 nM | ≤ 10 nM |  | 100 to 1000 nM |
| COc1ccccc1C(=O)NCc1ccc(-c2nn(C3CCC4(C3)OCCO4)c3ncnc(N)c23)cc1 (stereo not shown) [Example 25, N-[[4-[4-amino-1-(1,4-dioxaspiro[4.4]nonan-8-yl)pyrazolo[3,4-d]pyrimidin-3-yl]phenyl]methyl]-2-methoxy-benzamide] | ≤ 10 nM |  | 100 to 1000 nM | ≤ 10 nM |  | 10 to 100 nM |
| COc1ccccc1C(=O)NCc1ccc(-c2nn(C3CCC(=O)CC3)c3ncnc(N)c23)cc1 [Example 26, N-[[4-[4-amino-1-(4-oxocyclohexyl)pyrazolo[3,4-d]pyrimidin-3-yl]phenyl]methyl]-2-methoxy-benzamide] | 10 to 100 nM |  | 100 to 1000 nM | ≤ 10 nM |  | 100 to 1000 nM |
| COc1ccncc1C(=O)NCc1ccc(-c2nn(C3CCCC3)c3ncnc(N)c23)cc1 [Example 27, N-[[4-(4-amino-1-cyclopentyl-pyrazolo[3,4-d]pyrimidin-3-yl)phenyl]methyl]-4-methoxy-pyridine-3-carboxamide] | 10 to 100 nM |  | 100 to 1000 nM | 10 to 100 nM |  | 100 to 1000 nM |
| CNC1CCC(n2nc(-c3ccc(CNC(=O)c4ccccc4OC)cc3)c3c(N)ncnc32)CC1 (stereo not shown) [Example 28, N-[[4-[4-amino-1-[4-(methylamino)cyclohexyl]pyrazolo[3,4-d]pyrimidin-3-yl]phenyl]methyl]-2-methoxy-benzamide] | 10 to 100 nM |  | 100 to 1000 nM | 10 to 100 nM |  | 100 to 1000 nM |
| COc1ccccc1C(=O)NCc1ccc(-c2nn(C3CCOCC3)c3ncnc(N)c23)cc1 [Example 29, N-[[4-(4-amino-1-tetrahydropyran-4-yl-pyrazolo[3,4-d]pyrimidin-3-yl)phenyl]methyl]-2-methoxy-benzamide] | ≤ 10 nM |  | 100 to 1000 nM | ≤ 10 nM |  | 100 to 1000 nM |
| COc1ccccc1C(=O)NCc1ccc(-c2nn(C3CCCC(=O)C3)c3ncnc(N)c23)cc1 (stereo not shown) [Example 31, N-[[4-[4-amino-1-(3-oxocyclohexyl)pyrazolo[3,4-d]pyrimidin-3-yl]phenyl]methyl]-2-methoxy-benzamide] | ≤ 10 nM |  | 100 to 1000 nM | ≤ 10 nM |  | 10 to 100 nM |
| CCOC(=O)C1CCC(n2nc(-c3ccc(CNC(=O)c4ccccc4OC)cc3)c3c(N)ncnc32)CC1 (stereo not shown) [Example 32, ethyl 4-[4-amino-3-[4-[[(2-methoxybenzoyl)amino]methyl]phenyl]pyrazolo[3,4-d]pyrimidin-1-yl]cyclohexanecarboxylate] | ≤ 10 nM |  | 100 to 1000 nM | ≤ 10 nM |  | 10 to 100 nM |
| COc1ccccc1C(=O)NCc1ccc(-c2nn(C3CCCOC3)c3ncnc(N)c23)cc1 (stereo not shown) [Example 34, N-[[4-(4-amino-1-tetrahydropyran-3-yl-pyrazolo[3,4-d]pyrimidin-3-yl)phenyl]methyl]-2-methoxy-benzamide] | ≤ 10 nM |  | 1000 to 10000 nM | ≤ 10 nM |  | 10 to 100 nM |
| COc1ccccc1C(=O)NCc1ccc(-c2nn([C@H]3C=C[C@H](OC(C)=O)C3)c3ncnc(N)c23)cc1 [Example 35, [(1R,4R)-4-[4-amino-3-[4-[[(2-methoxybenzoyl)amino]methyl]phenyl]pyrazolo[3,4-d]pyrimidin-1-yl]cyclopent-2-en-1-yl] acetate] | ≤ 10 nM |  | 10 to 100 nM | ≤ 10 nM |  | 10 to 100 nM |
| COc1ccccc1C(=O)NCc1ccc(-c2nn([C@H]3C=C[C@H](O)C3)c3ncnc(N)c23)cc1 [Example 36, N-[[4-[4-amino-1-[(1R,4R)-4-hydroxycyclopent-2-en-1-yl]pyrazolo[3,4-d]pyrimidin-3-yl]phenyl]methyl]-2-methoxy-benzamide] | ≤ 10 nM |  | 100 to 1000 nM | ≤ 10 nM |  | 100 to 1000 nM |
| COc1ccccc1C(=O)NCc1ccc(-c2nn(C3CCCC(O)C3)c3ncnc(N)c23)cc1 (stereo not shown) [Example 37, N-[[4-[4-amino-1-(3-hydroxycyclohexyl)pyrazolo[3,4-d]pyrimidin-3-yl]phenyl]methyl]-2-methoxy-benzamide] | ≤ 10 nM |  | 100 to 1000 nM | ≤ 10 nM | 1.7 nM | 100 to 1000 nM |
| COc1ccccc1C(=O)NCc1ccc(-n2nc(C3CCCC3)c3ncnc(N)c32)cc1 [Example 38, N-[[4-(7-amino-3-cyclopentyl-pyrazolo[4,3-d]pyrimidin-1-yl)phenyl]methyl]-2-methoxy-benzamide] | ≤ 10 nM |  | 10 to 100 nM | ≤ 10 nM |  | 10 to 100 nM |
